Results reported in the NIST ThermoML archive (doi:10.1021/acs.jced.5b00654).
Several values for one entry are separate records, joined by “and”; a condition that tells them apart may be missing. Equal values may be shown once.

Details: Fluid (supercritical or subcritical phases); for mass density: Buoyancy - hydrostatic balance with magnetic suspension - one sinker; for viscosity: Vibrating wire viscometry

CCCC [butane]
Details	mass density [kg/m3]	viscosity
428.2 K, 3793.8 kPa	137.58	0.01557 mPa·s
428.2 K, 4030 kPa	274.89	0.02934 mPa·s
428.2 K, 4030.1 kPa	274.9	0.02934 mPa·s
428.2 K, 22973 kPa	480.02	0.08495 mPa·s
428.21 K, 1539.8 kPa	29.634	0.01094 mPa·s
428.21 K, 1540.1 kPa	29.642	0.01093 mPa·s
428.21 K, 22974 kPa	480.02	0.08503 mPa·s and 0.08492 mPa·s
428.22 K, 3107.8 kPa	80.455	0.01252 mPa·s
428.23 K, 3108.6 kPa	80.486	0.01253 mPa·s
428.34 K, 3805.1 kPa	138.83	0.01567 mPa·s
428.39 K, 3806.5 kPa	138.8	0.01569 mPa·s
448.09 K, 4846.2 kPa	174.16	0.01886 mPa·s
448.11 K, 5054.5 kPa	201.47	0.02122 mPa·s
448.11 K, 5054.8 kPa	201.47	0.02124 mPa·s
448.11 K, 6144.8 kPa	304.18	0.0341 mPa·s
448.11 K, 6145 kPa	304.17	0.0341 mPa·s
448.13 K, 4161.6 kPa	114.81	0.01481 mPa·s and 0.01479 mPa·s
448.13 K, 4847 kPa	174.1	0.01885 mPa·s
448.13 K, 5203.2 kPa	222.02	0.02331 mPa·s
448.13 K, 5203.5 kPa	222.03	0.02333 mPa·s
448.13 K, 7189.8 kPa	340.36	0.04055 mPa·s
448.14 K, 7191 kPa	340.37	0.04061 mPa·s
448.14 K, 18184 kPa	440.74	0.06811 mPa·s
448.14 K, 18187 kPa	440.74	0.06813 mPa·s
448.14 K, 29460 kPa	478.91	0.08497 mPa·s
448.15 K, 220.17 kPa	3.4915	0.01102 mPa·s
448.15 K, 618.43 kPa	10.135	0.0111 mPa·s
448.15 K, 618.6 kPa	10.141	0.01109 mPa·s
448.15 K, 807.6 kPa	13.453	0.01114 mPa·s
448.15 K, 1661.9 kPa	30.078	0.01146 mPa·s
448.15 K, 3073.3 kPa	66.943	0.01257 mPa·s
448.15 K, 5551.9 kPa	263.05	0.02811 mPa·s
448.15 K, 5553.7 kPa	263.02	0.02811 mPa·s
448.15 K, 11528 kPa	400.23	0.05478 mPa·s
448.15 K, 11529 kPa	400.23	0.05477 mPa·s
448.15 K, 14319 kPa	420.46	0.06101 mPa·s
448.15 K, 29472 kPa	478.91	0.08489 mPa·s
448.16 K, 220.38 kPa	3.4965	0.01101 mPa·s
448.16 K, 430.17 kPa	6.9362	0.01106 mPa·s
448.16 K, 431.02 kPa	6.95	0.01106 mPa·s
448.16 K, 508.5 kPa	8.2591	0.01107 mPa·s
448.16 K, 509.69 kPa	8.28	0.01107 mPa·s
448.16 K, 807.76 kPa	13.456	0.01115 mPa·s
448.16 K, 1662.2 kPa	30.086	0.01146 mPa·s
448.16 K, 2073.7 kPa	39.305	0.01169 mPa·s
448.16 K, 2511.8 kPa	50.321	0.01201 mPa·s
448.16 K, 2512.1 kPa	50.329	0.012 mPa·s
448.16 K, 3073.3 kPa	66.941	0.01257 mPa·s
448.16 K, 6551.1 kPa	321.12	0.03695 mPa·s
448.16 K, 6551.4 kPa	321.12	0.03694 mPa·s
448.16 K, 8139.4 kPa	359.98	0.04474 mPa·s
448.16 K, 8140.6 kPa	359.99	0.04466 mPa·s
448.16 K, 23152 kPa	460.08	0.07601 mPa·s
448.17 K, 1158.4 kPa	19.932	0.01125 mPa·s
448.17 K, 2073 kPa	39.287	0.01169 mPa·s
448.17 K, 4498.3 kPa	138.72	0.01627 mPa·s
448.17 K, 5346.6 kPa	240.34	0.02533 mPa·s
448.17 K, 9537.4 kPa	380.12	0.04948 mPa·s
448.17 K, 9538.6 kPa	380.13	0.0494 mPa·s
448.17 K, 14321 kPa	420.46	0.06093 mPa·s
448.17 K, 23154 kPa	460.09	0.07593 mPa·s
448.18 K, 3433.7 kPa	79.735	0.01307 mPa·s
448.18 K, 3433.9 kPa	79.739	0.01308 mPa·s
448.18 K, 3747.8 kPa	92.905	0.01367 mPa·s
448.18 K, 4498.1 kPa	138.68	0.01625 mPa·s
448.18 K, 5346.7 kPa	240.34	0.02534 mPa·s
448.19 K, 3747.9 kPa	92.91	0.01367 mPa·s
448.23 K, 4727 kPa	160.07	0.01777 mPa·s
448.23 K, 4727.1 kPa	160.07	0.01776 mPa·s
448.27 K, 5784.6 kPa	281.65	0.03063 mPa·s
448.28 K, 5785.1 kPa	281.66	0.03066 mPa·s
